Measured values as given in patent US9012448B2, “1,2,4-triazolo[4,3-a]pyridine derivatives and their use as positive allosteric modulators of MGLUR2 receptors” (Janssen Pharmaceuticals, Inc., priority 2010, dated 2015).

Tests used:
human mGluR2 receptor = target: T1, human mGluR2 receptor (Homo sapiens, UniProt Q14416); assay: [35S]GTPγS binding assay, hmGluR2 PAM (membranes from transfected CHO cells, glutamate at EC20); format: biochemical; conditions: for EC50: in presence of mGluR2 agonist glutamate at a predetermined EC20 concentration, pEC50 = -log EC50 (M), at least 8 concentrations; for GTPγS - hmGluR2 PAM Emax / Emax: relative maximal effect (maximal % effect relative to the control glutamate response), glutamate at EC20
T1 construct: expressed in transfected cells; host or cells: CHO cells (membrane preparation)
From the text: The compounds provided in the present invention are positive allosteric modulators of mGluR2. These compounds appear to potentiate glutamate responses by binding to an allosteric site other than the glutamate binding site. The response of mGluR2 to a concentration of glutamate is increased when compounds of Formula (I) are present. Compounds of Formula (I) are expected to have their effect substantially at mGluR2 by virtue of their ability to enhance the function of the receptor. The effects of positive allosteric modulators tested at mGluR2 using the [^35S]GTPγS binding assay method described below and which is suitable for the identification of such compounds, and more particularly the compounds according to Formula (I), are shown in Table 3.
The [^35S]GTPγS binding assay is a functional membrane-based assay used to study G-protein coupled receptor (GPCR) function whereby incorporation of a non-hydrolysable form of GTP, [^35S]GTPγS (guanosine 5′-triphosphate, labelled with […] ^35S), is measured. The G-protein a subunit catalyzes the exchange of guanosine 5′-diphosphate (GDP) by guanosine triphosphate (GTP) and on activation of the GPCR by an agonist, [^35S]GTPγS, becomes incorporated and cannot be cleaved to continue the exchange cycle (Harper (1998) Current Protocols in Pharmacology 2.6.1-10, John Wiley & Sons, Inc.). […] Here we describe the use of the [^35S]GTPγS binding assay using membranes from cells transfected with the human mGluR2 receptor and adapted from Schaffhauser et al. ((2003) Molecular Pharmacology 4:798-810) for the detection of the positive allosteric modulation (PAM) properties of the compounds of this invention.
CHO-cells were cultured to pre-confluence and stimulated with 5 mM butyrate for 24 h. Cells were then collected by scraping in PBS and cell suspension was centrifuged (10 min at 4000 RPM in benchtop centrifuge). Supernatant was discarded and pellet gently resuspended in 50 mM Tris-HCl, pH 7.4 by mixing with a vortex and pipetting up and down. The suspension was centrifuged at 16,000 RPM (Sorvall RC-5C plus rotor SS-34) for 10 minutes and the supernatant discarded. The pellet was homogenized in 5 mM Tris-HCl, pH 7.4 using an ultra-turrax homogenizer and centrifuged again (18,000 RPM, 20 min, 4° C.). The final pellet was resuspended in 50 mM Tris-HCl, pH 7.4 and stored at −80° C. in appropriate aliquots before use. Protein concentration was determined by the Bradford method (Bio-Rad, USA) with bovine serum albumin as standard.
Measurement of mGluR2 positive allosteric modulatory activity of test compounds was performed as follows. Test compounds and glutamate were diluted in assay buffer containing 10 mM HEPES acid, 10 mM HEPES salt, pH 7.4, 100 mM NaCl, 3 mM MgCl2 and 10 μM GDP. Human mGlu2 receptor-containing membranes were thawed on ice and diluted in assay buffer supplemented with 14 μg/ml saponin. Membranes were pre-incubated with compound alone or together with a predefined (˜EC20) concentration of glutamate (PAM assay) for 30 min at 30° C. After addition of [^35S]GTPγS (f.c. 0.1 nM), assay mixtures were shaken briefly and further incubated to allow [^35S]GTPγS incorporation on activation (30 minutes, 30° C.). Final assay mixtures contained 7 μg of membrane protein in 10 mM HEPES acid, 10 mM HEPES salt, pH 7.4, 100 mM NaCl, 3 mM MgCl2, 10 μM GDP and 10 μg/ml saponin. Total reaction volume was 200 μl. Reactions were terminated by rapid filtration through Unifilter-96 GF/B plates (Perkin Elmer, Massachusetts, USA) using a 96-well filtermate universal harvester. Filters were washed 6 times with ice-cold 10 mM NaH2PO4/10 mM Na2HPO4, pH 7.4. Filters were then air-dried, and 40 μl of liquid scintillation cocktail (Microscint-O) was added to each well. Membrane-bound radioactivity was counted in a Microplate Scintillation and Luminescence Counter from Perkin Elmer. […]

T1 sequence (Q14416 19-872): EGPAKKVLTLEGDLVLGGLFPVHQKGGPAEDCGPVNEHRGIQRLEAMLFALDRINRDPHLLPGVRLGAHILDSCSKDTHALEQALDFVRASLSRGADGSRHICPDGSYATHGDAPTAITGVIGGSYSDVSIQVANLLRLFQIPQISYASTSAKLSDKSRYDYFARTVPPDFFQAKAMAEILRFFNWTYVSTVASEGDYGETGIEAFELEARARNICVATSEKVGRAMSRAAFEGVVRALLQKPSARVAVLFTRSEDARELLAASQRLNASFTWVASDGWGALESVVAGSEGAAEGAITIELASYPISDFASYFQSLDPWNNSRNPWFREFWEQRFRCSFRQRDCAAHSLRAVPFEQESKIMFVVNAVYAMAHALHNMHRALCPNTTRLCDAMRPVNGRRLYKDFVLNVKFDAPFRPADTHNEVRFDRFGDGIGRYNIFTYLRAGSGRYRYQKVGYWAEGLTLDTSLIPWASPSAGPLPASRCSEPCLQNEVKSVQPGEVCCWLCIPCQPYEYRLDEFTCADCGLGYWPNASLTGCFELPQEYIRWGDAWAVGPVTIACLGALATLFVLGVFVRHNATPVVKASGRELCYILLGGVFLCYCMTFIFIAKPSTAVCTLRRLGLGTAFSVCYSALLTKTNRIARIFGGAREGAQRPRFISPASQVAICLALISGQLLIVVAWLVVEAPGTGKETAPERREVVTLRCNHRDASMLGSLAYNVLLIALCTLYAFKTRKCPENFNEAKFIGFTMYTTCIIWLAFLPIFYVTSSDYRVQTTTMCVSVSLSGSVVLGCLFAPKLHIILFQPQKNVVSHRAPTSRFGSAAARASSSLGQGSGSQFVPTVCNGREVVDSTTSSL

Row | SMILES | EC50 (human mGluR2 receptor) [M] | GTPγS - hmGluR2 PAM Emax (human mGluR2 receptor) [%] | melting point [°C] | Emax (human mGluR2 receptor) [%]
1 | CC1(c2ccccc2F)COCCN1Cc1ccn2c(CC3CC3)nnc2c1C(F)(F)F (single isomer, unassigned) [Compound 4a, 3-(Cyclopropylmethyl)-7-{[(3*R)-3-(2-fluorophenyl)-3-methylmorpholin-4-yl]methyl}-8-(trifluoromethyl)[1,2,4]triazolo[4,3-a]pyridine] | 1.82e-07 | 108 |  | 
2 | CC1(c2ccccc2F)COCCN1Cc1ccn2c(CC3CC3)nnc2c1C(F)(F)F (single isomer, unassigned) [Compound 4b, 3-(Cyclopropylmethyl)-7-{[(3*S)-3-(2-fluorophenyl)-3-methylmorpholin-4-yl]methyl}-8-(trifluoromethyl)[1,2,4]triazolo[4,3-a]pyridine] | 1.95e-07 | 52 |  | 
3 | FC(F)(F)c1c(CN2CCOC[C@H]2c2ccccc2)ccn2c(CC3CC3)nnc12 [Compound 1, 3-(Cyclopropylmethyl)-7-[[(3R)-3-phenyl-4-morpholinyl]methyl]-8-(trifluoromethyl)-1,2,4-triazolo[4,3-c]pyridine] | 1.7e-07 |  | 69.2 | 238
4 | FC(F)(F)c1c(CN2CCOC[C@@H]2c2ccccc2)ccn2c(CC3CC3)nnc12 [Compound 2, 3-(Cyclopropylmethyl)-7-[[(3S)-3-phenyl-4-morpholinyl]methyl]-8-(trifluoromethyl)-1,2,4-triazolo[4,3-c]pyridine] | 4.27e-07 |  |  | 136

Second part, the molecule after the results:

Row | EC50 (human mGluR2 receptor) [M] | GTPγS - hmGluR2 PAM Emax (human mGluR2 receptor) [%] | melting point [°C] | Emax (human mGluR2 receptor) [%] | SMILES
5 | 2e-07 | 101 |  |  | CC1(c2ccc(F)cc2F)COCCN1Cc1ccn2c(CC3CC3)nnc2c1C(F)(F)F (single isomer, unassigned) [Compound 5a, 3-(Cyclopropylmethyl)-7-{[(3*R)-3-(2,4-difluorophenyl)-3-methylmorpholin-4-yl]methyl}-8-(trifluoromethyl)[1,2,4]triazolo[4,3-a]pyridine]
6 | 1.38e-07 | 126 |  |  | CC1(c2ccc(F)cc2F)COCCN1Cc1ccn2c(CC3CC3)nnc2c1C(F)(F)F (single isomer, unassigned) [Compound 5b, 3-(Cyclopropylmethyl)-7-{[(3*S)-3-(2,4-difluorophenyl)-3-methylmorpholin-4-yl]methyl}-8-(trifluoromethyl)[1,2,4]triazolo[4,3-a]pyridine]
